Marks after values point to notes of the source that are not given here.
Tests used:
Assay type in all cases: in vivo, SD rats
[1] = test system: rat models with focal cerebral ischemia-reperfusion (tMCAO); test: Cerebral blood flow in tMCAO model rats; conditions: x ± s; for Cerebral blood flow 24 h after last administration / Cerebral blood flow improvement percentage / Recovery percentage of cerebral blood flow 24 h after last administration: 24 h after last of 3 administrations, 3×10^−5 mol/kg; for Cerebral blood flow before administration / Decrease percentage of cerebral blood flow before administration: after ischemia, before first administration; for Cerebral blood flow before ischemia: baseline before surgery, before any administration
Experimental: (§1) Rat models with focal cerebral ischemia-reperfusion (tMCAO) were prepared by using a suture-occluded method, and therapeutic effects of the test drugs on the tMCAO model rats were investigated.
(§2) A specific modeling method for the rat models with focal cerebral ischemia-reperfusion (tMCAO) is as follows. At 12 h before surgery, the rats were fed at about 30 g/piece. After induced anesthesia with 3-4% isoflurane and maintained anesthesia with 1.5-2.5% isoflurane were performed, the rats were placed at supine positions on an operating table at a constant temperature of 37° C. The skin in middle lines of necks was cut, subcutaneous tissues and muscles were bluntly separated, and common carotid arteries on right sides, internal carotid arteries and external carotid arteries were separated. Two ligation threads were allowed to penetrate through the external carotid arteries to ligate distal ends, an artery clamp was placed at the common carotid arteries and the internal carotid arteries, respectively, small incisions were made at 45° diagonally on the external carotid arteries at about 4 mm away from bifurcations of the common carotid arteries, and suitable suture occlusions were inserted to gently ligate proximal ends. The external carotid arteries were cut, directions and angles of the suture occlusions were adjusted, the suture occlusions were gently pushed and inserted into the internal carotid arteries, and then the artery clamps were released. The suture occlusions were continuously inserted until black dot marks of the suture occlusions reached junctions of the internal carotid arteries and the common carotid arteries at a length of about 18-20 mm. The proximal ends of the external carotid arteries were tightened, the suture occlusions were fixed, the skin was sutured after it was confirmed that there was no bleeding, the body temperature of the rats was maintained, and meloxicam as an analgesic drug was injected subcutaneously at 1 mg/kg.
(§3) At 2 h after ischemia, induced anesthesia with 3-4% isoflurane and maintained anesthesia with 1.5-2.5% isoflurane were performed, the skin sutures were cut, the ligation threads at the proximal ends of the external carotid arteries were opened, the suture occlusions were taken out, reperfusion was performed, ligation was performed again, and the skin was sutured after it was confirmed that there was no bleeding. In a sham-operated control group, other steps were the same as above except that the suture occlusions were inserted and pulled out immediately and the reperfusion was not required. After the surgery, the rats were allowed to lie prostrate and return to a cage.
(§4) When the animals were awake after modeling, behavioral scoring was performed on the animals with reference to a 4-point scoring standard of Zea longa. The animals with scores of 1-3 points were judged as successfully modeled animals, and the animals not meeting requirements were eliminated.
Method: SPF-grade male SD rats were used, the various tMCAO rat models were prepared by using the suture-occluded method, and the successfully modeled animals were randomly divided into 6 groups including a model control group, a test drug group 1, a test drug group 2, a test drug group 3, a test drug group 4 and a test drug group 5, with 6 or more animals in each group. In addition, the sham-operated control group was set, which involved 6 animals with the suture occlusions inserted and pulled out immediately in the surgery. At 4 h after the cerebral ischemia (at 4 h after the suture occlusions were pulled out in the sham-operated group), the various groups were given the various drugs or a vehicle for the first time. In each group, an administration dose was 3×10^−5 mol/kg, an administration volume was 3 mL/kg, administration was performed for a total of 3 times, and an administration time interval of every two times was 24 h. […]

[2] = test system: rat models with focal cerebral ischemia-reperfusion (tMCAO); test: Percentage of cerebral infarction area (TTC staining) in tMCAO model rats; conditions: Gavage, about 24 h after last administration, x ± s
Experimental: as §1, §2, §3, §4
(§5) Method: SPF-grade male SD rats were used, the various tMCAO rat models were prepared by using the suture-occluded method, and the successfully modeled animals were randomly divided into 6 groups including a model control group, a test drug group 1, a test drug group 2, a test drug group 3, a test drug group 4 and a test drug group 5, with 6 or more animals in each group. In addition, the sham-operated control group was set, which involved 6 animals with the suture occlusions inserted and pulled out immediately in the surgery. […]

[3] = test system: rat models with focal cerebral ischemia-reperfusion (tMCAO); test: Behavioral scoring of tMCAO model rats; conditions: about 24 h after last administration, x ± s
Experimental: as §1, §2, §3, §4, §5

[4] = test system: rat models with focal cerebral ischemia-reperfusion (tMCAO); test: Rotarod test (latent period of falling) in tMCAO model rats; conditions: Gavage, 3 × 10^−5 mol/kg, 3 administrations, about 24 h after last administration, x ± s
Experimental: as §1, §2, §3, §4, §5

[5] = test system: rat models with focal cerebral ischemia-reperfusion (tMCAO); test: Drug efficacy test in tMCAO model rats, overall result; conditions: latent period of falling, behavioral scores, infarction area, cerebral blood flow
Experimental: as §1
A specific modeling method for the rat models with focal cerebral ischemia-reperfusion (tMCAO) is as follows. At 12 h before surgery, the rats were fed at about 30 g/piece. After induced anesthesia with 3-4% isoflurane and maintained anesthesia with 1.5-2.5% isoflurane were performed, the rats were placed at supine positions on an operating table at a constant temperature of 37° C. The skin in middle lines of necks was cut, subcutaneous tissues and muscles were bluntly separated, and common carotid arteries on right sides, internal carotid arteries and external carotid arteries were separated. Two ligation threads were allowed to penetrate through the external carotid arteries to ligate distal ends, an artery clamp was placed at the common carotid arteries and the internal carotid arteries, respectively, small incisions were made at 45° diagonally on the external carotid arteries at about 4 mm away from bifurcations of the common carotid arteries, and suitable suture occlusions were inserted to gently ligate proximal ends. […]

| SMILES | Cerebral blood flow 24 h after last administration [1] [BPU] | Cerebral blood flow improvement percentage [1] | Recovery percentage of cerebral blood flow 24 h after last administration [1] | Cerebral blood flow before administration [1] [BPU] | Decrease percentage of cerebral blood flow before administration [1] [%] | Cerebral blood flow before ischemia [1] [BPU] | Percentage of cerebral infarction area ([2]; 3 × 10^−5 mol/kg) [%] | Behavioral score ([3]; Gavage, 3 × 10^−5 mol/kg) | Latent period of falling (rotarod test) [4] | Behavioral score ([3]; route printed as Intravenous injection and Gavage, 3 × 10^−5 mol/kg) | Percentage of cerebral infarction area ([2]; 6 × 10^−5 mol/kg) | Behavioral score ([3]; Gavage, 6 × 10^−5 mol/kg) | Overall therapeutic effect in tMCAO rats (in words; vs model control group and between test drug groups) [5] |
| --- | --- | --- | --- | --- | --- | --- | --- | --- | --- | --- | --- | --- | --- |
| CC(=O)Oc1cc(C)nn1-c1nc(C)c(C)nc1C [Test drug 2, 3-methyl-1-(3,5,6-trimethylpyrazin-2-yl)-1H-pyrazol-5-acetate] | 367.8 ± 36.9 | 20.9 ± 13.8 % | 79.3 ± 8.9 % | 213.3 ± 16.6 | 41.6 ± 8.6 | 371.8 ± 51.6 | 5.8 ± 2.2 | 2.3 ± 0.7 | 35.2 ± 23.3 s | – | – | – | – |
| Cc1cc(OC(=O)c2cccnc2)n(-c2nc(C)c(C)nc2C)n1 [Test drug 1, 3-methyl-1-(3,5,6-trimethylpyrazin-2-yl)-1H-pyrazol-5-nicotinate] | 304.8 ± 12.7 | 28.7 ± 4.9 % | 87.8 ± 2.0 % | 204.6 ± 10.3 | 40.9 ± 5.2 | 347.5 ± 19.3 | 4.6 ± 1.2 | – | 48.7 ± 14.0 s | 1.9 ± 0.6 | – | – | – |
| Cc1cc(OC(=O)C(C)(C)C)n(-c2nc(C)c(C)nc2C)n1 [Test drug 5, 3-methyl-1-(3,5,6-trimethylpyrazin-2-yl)-1H-pyrazol-5-pivalate] | 275.0 ± 20.5 | 21.2 ± 4.7*^ % | 81.6 ± 5.9**^ % | 203.3 ± 8.1 | 39.5 ± 4.4 | 337.9 ± 26.0 | – | – | 31.5 ± 14.5^ s | – | 2.9 ± 1.0 % | 2.7 ± 0.9 | – |
| CC(=O)Oc1ccccc1C(=O)Oc1cc(C)nn1-c1nc(C)c(C)nc1C [Test drug 3, 3-methyl-1-(3,5,6-trimethylpyrazin-2-yl)-1H-pyrazol-5-yl-2-acetoxybenzoate] | 321.4 ± 54.0 | 30.3 ± 7.1 % | 90.1 ± 4.2**^&& % | 210.3 ± 15.1 | 40.1 ± 6.3 | 356.5 ± 56.6 | – | – | 49.7 ± 12.3 s | – | 3.5 ± 1.6**^& % | 1.6 ± 0.7 | better than the groups 2 and 5 |
| Cc1cc(OC(=O)c2ccccc2)n(-c2nc(C)c(C)nc2C)n1 [Test drug 4, 3-methyl-1-(3,5,6-trimethylpyrazin-2-yl)-1H-pyrazol-5-yl-benzoate] | 321.2 ± 17.0 | 27.0 ± 7.3 % | 87.0 ± 5.8**^& % | 220.8 ± 16.4 | 40.0 ± 7.1 | 370.2 ± 17.2 | 4.5 ± 2.5 | 1.7 ± 0.7 | 43.8 ± 14.9 s | – | – | – | better than the groups 2 and 5 |

— patent US20260159510A1, “HETEROCYCLIC COMPOUND, PREPARATION METHOD THEREFOR AND USE THEREOF” (GUANGZHOU DAGUANG PHARMACEUTICAL CO., LTD., priority 2022, published 2026)
